Consider 22 compounds from patent publication US20230151003A1, “COMPOUNDS AND METHODS OF USE” (Exelixis, Inc., priority 2020, published 2023).

The target of one assay is T1, Mer (Homo sapiens, UniProt Q12866).
T1 construct: host or cells: 293A cells (Thermo Fisher #R70507)
T1 sequence (Q12866 21-999): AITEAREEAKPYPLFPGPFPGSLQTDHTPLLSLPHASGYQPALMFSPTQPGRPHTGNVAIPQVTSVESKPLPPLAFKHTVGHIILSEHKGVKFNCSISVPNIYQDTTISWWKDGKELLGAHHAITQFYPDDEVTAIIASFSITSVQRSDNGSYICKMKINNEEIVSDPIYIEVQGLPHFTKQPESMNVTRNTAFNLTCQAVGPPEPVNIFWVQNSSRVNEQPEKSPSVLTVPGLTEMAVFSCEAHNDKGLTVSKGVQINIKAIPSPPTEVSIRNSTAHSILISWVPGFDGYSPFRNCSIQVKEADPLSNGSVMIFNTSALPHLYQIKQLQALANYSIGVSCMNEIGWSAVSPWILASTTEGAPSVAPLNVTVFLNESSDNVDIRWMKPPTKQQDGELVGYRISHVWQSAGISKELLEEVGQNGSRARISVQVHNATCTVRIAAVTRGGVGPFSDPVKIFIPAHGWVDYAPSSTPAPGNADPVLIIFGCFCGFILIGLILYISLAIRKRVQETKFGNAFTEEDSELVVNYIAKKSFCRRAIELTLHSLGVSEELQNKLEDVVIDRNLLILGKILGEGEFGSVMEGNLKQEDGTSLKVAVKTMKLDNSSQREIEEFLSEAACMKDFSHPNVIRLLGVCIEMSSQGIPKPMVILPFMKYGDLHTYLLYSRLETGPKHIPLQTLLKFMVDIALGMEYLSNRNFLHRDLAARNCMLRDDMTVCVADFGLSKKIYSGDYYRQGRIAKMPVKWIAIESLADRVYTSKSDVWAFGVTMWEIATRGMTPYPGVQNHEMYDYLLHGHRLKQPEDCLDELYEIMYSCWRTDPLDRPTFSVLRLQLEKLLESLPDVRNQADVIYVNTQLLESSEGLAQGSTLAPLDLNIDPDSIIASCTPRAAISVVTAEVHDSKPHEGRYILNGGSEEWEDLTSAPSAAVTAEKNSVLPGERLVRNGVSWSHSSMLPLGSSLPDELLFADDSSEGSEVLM
Briefly: Mer autophosphorylation ELISA in transient transfected 293A cells. It is filed as cell-based. The conditions noted are these: Table 3 Cellular Activities; MERTK-transfected 293A cells, phospho-Mer ELISA. Summed up:
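293A cells transiently transfected with human MERTK DNA, replated after 24 h, then treated 1 h with 8-point compound dilutions in serum-free medium (0.3% DMSO). Lysates assayed by phospho-Mer sandwich ELISA against phospho-Mer standard; DMSO = 100%, reference inhibitor = 0% activity; IC50 by 4-parameter logistic fit.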
A general note: In an ELISA, binding on a coated surface is turned into a signal by an enzyme label.

A further assay deals with KDR (Homo sapiens, UniProt P35968). The experiment in a line: KDR autophosphorylation ELISA in HUVEC cells. It is filed as cell-based. Details: endogenous in cells; host or cells: HUVEC (Lonza #C2519A). The following applies: Table 3 Cellular Activities, VEGF165-stimulated, phospho-KDR ELISA. A digest of the protocol: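 Inhibition of VEGF165-induced KDR phosphorylation was determined in serum-starved HUVEC after 1 h compound pretreatment and 5 min stimulation with 100 ng/mL VEGF165. Lysate phospho-KDR was measured by ELISA; IC50 values came from a 4-parameter logistic fit of 8-point curves.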
Sequence of KDR (P35968 20-1356): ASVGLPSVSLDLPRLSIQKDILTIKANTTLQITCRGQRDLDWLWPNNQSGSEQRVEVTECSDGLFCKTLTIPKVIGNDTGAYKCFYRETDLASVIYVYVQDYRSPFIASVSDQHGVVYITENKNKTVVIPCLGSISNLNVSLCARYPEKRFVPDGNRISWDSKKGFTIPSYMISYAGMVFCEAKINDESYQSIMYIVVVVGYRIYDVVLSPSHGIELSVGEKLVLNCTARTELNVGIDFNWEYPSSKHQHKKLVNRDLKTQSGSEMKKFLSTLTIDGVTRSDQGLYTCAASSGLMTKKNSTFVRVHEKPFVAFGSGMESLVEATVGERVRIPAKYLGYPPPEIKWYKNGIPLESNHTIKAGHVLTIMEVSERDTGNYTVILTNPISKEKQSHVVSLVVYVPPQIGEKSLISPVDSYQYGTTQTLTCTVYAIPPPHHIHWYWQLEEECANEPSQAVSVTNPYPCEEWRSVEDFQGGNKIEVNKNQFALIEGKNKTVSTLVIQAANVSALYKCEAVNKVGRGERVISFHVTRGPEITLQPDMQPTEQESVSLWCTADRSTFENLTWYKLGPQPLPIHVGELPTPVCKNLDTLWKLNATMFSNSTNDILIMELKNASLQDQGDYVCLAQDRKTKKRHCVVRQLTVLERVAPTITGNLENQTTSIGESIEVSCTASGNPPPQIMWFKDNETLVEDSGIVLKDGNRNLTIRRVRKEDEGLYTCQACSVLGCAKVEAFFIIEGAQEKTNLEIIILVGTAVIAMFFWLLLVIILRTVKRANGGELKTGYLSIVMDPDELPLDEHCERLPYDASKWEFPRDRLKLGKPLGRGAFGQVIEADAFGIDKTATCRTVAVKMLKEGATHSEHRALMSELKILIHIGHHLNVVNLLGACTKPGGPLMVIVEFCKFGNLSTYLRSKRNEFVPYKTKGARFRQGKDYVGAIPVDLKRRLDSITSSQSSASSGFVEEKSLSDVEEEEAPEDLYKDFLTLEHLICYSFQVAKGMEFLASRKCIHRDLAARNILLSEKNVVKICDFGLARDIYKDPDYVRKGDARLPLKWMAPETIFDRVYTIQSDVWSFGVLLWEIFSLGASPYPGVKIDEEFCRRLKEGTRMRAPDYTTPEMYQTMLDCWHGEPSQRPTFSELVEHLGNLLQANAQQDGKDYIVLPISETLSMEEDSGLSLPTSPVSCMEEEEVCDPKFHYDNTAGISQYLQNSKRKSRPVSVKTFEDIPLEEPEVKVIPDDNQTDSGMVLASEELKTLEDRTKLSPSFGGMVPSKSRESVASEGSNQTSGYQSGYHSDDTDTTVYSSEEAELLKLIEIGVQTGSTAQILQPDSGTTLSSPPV

With `COc1cc2nccc(Oc3cc(F)c(NC(=O)c4c(C)n(C)c(C)c(-c5ccco5)c4=O)cc3F)c2nc1OC` [Compound 163, N-[4-[(6,7-Dimethoxy-1,5-naphthyridin-4-yl)oxy]-2,5-difluorophenyl]-5-(furan-2-yl)-1,2,6-trimethyl-4-oxopyridine-3-carboxamide], the IC50 (in general, the concentration at which inhibition is half-maximal) against Mer is at most 0.1 µM; against KDR, 0.3 to 1 µM.
As for `COc1cc2nccc(Oc3ccc(NC(=O)c4cnc(C)c(-c5cscn5)c4O)cc3F)c2nc1OC` [Compound 142, N-[4-[(6,7-Dimethoxy-1,5-naphthyridin-4-yl)oxy]-3-fluorophenyl]-4-hydroxy-6-methyl-5-(1,3-thiazol-4-yl)pyridine-3-carboxamide], the IC50 against Mer and against KDR was at most 0.1 µM throughout.
Turning to `COc1cc2nccc(Oc3ccc(NC(=O)c4c(C)ncc(-c5sccc5C)c4O)cc3F)c2nc1OC` [Compound 126, N-[4-[(6,7-Dimethoxy-1,5-naphthyridin-4-yl)oxy]-3-fluorophenyl]-4-hydroxy-2-methyl-5-(3-methylthiophen-2-yl)pyridine-3-carboxamide], the IC50 against Mer and against KDR was at most 0.1 µM in each case.
Take `COc1cc2nccc(Oc3ccc(NC(=O)c4cnc(C)c(-c5ccc(C)s5)c4O)cc3F)c2nc1OC` [Compound 94, N-[4-[(6,7-Dimethoxy-1,5-naphthyridin-4-yl)oxy]-3-fluoro-phenyl]-4-hydroxy-6-methyl-5-(5-methyl-2-thienyl) pyridine-3-carboxamide]: the IC50 at Mer and at KDR was at most 0.1 µM in each case.
As to `COc1cnc2c(Oc3ccc(NC(=O)c4cnc(C)c(-c5cccs5)c4O)cc3F)ccnc2c1` [Compound 100, N-[3-Fluoro-4-[(7-methoxy-1,5-naphthyridin-4-yl)oxy]phenyl]-4-hydroxy-6-methyl-5-(2-thienyl)pyridine-3-carboxamide], the IC50 on Mer and against KDR was at most 0.1 µM each time.
`COc1cc2nccc(Oc3ccc(NC(=O)c4c(C)nc(C)c(-c5ccc(C(C)C)o5)c4O)cc3F)c2nc1OC` [Compound 148, N-[4-[(6,7-Dimethoxy-1,5-naphthyridin-4-yl)oxy]-3-fluorophenyl]-4-hydroxy-2,6-dimethyl-5-(5-propan-2-ylfuran-2-yl)pyridine-3-carboxamide]: the half-inhibitory concentration (IC50) against Mer and against KDR was at most 0.1 µM each time.
As to `COc1cc2nccc(Oc3ccc(NC(=O)c4cn(CCF)c(C)c(-c5ccsc5)c4=O)cc3F)c2nc1OC` [Compound 332, N-[4-[(6,7-Dimethoxy-1,5-naphthyridin-4-yl)oxy]-3-fluorophenyl]-1-(2-fluoroethyl)-6-methyl-4-oxo-5-thiophen-3-ylpyridine-3-carboxamide], the IC50 on Mer and against KDR was at most 0.1 µM each time.
For the compound `COc1cnc2c(Oc3ccc(NC(=O)c4cn(CCF)c(C)c(-c5ccoc5)c4=O)cc3F)ccnc2c1` [Compound 334, 1-(2-Fluoroethyl)-N-[3-fluoro-4-[(7-methoxy-1,5-naphthyridin-4-yl)oxy]phenyl]-5-(furan-3-yl)-6-methyl-4-oxopyridine-3-carboxamide], the results for the IC50 on Mer and against KDR were at most 0.1 µM and 0.3 to 1 µM, respectively.
In the same order, the values of `COc1cc2nccc(Oc3ccc(NC(=O)c4c(C)n(C)c(C)c(-c5cccs5)c4=O)cc3F)c2nc1OC` [Compound 168, N-[4-[(6,7-Dimethoxy-1,5-naphthyridin-4-yl)oxy]-3-fluorophenyl]-1,2,6-trimethyl-4-oxo-5-thiophen-2-ylpyridine-3-carboxamide] are at most 0.1 µM and at most 0.1 µM.
In the same order, the values of `COc1cc2nccc(Oc3ccc(NC(=O)c4c(C)nc(C)c(-c5cc(C)cs5)c4O)cc3F)c2nc1OC` [Compound 137, N-[4-[(6,7-Dimethoxy-1,5-naphthyridin-4-yl)oxy]-3-fluorophenyl]-4-hydroxy-2,6-dimethyl-5-(4-methylthiophen-2-yl)pyridine-3-carboxamide] are at most 0.1 µM and at most 0.1 µM.
For `COc1cc2nccc(Oc3ccc(NC(=O)c4cnc(C)c(-c5ccnn5C)c4O)cc3F)c2nc1OC` [Compound 104] the same measures were at most 0.1 µM and at most 0.1 µM.
Consider `COc1cc2nccc(Oc3ccc(NC(=O)c4c(C)ncc(-c5ccco5)c4O)cc3F)c2nc1OC` [Compound 119, N-[4-[(6,7-Dimethoxy-1,5-naphthyridin-4-yl)oxy]-3-fluorophenyl]-5-(furan-2-yl)-4-hydroxy-2-methylpyridine-3-carboxamide], for which the IC50 at Mer and against KDR was at most 0.1 µM each time.
With `COc1cc2nccc(Oc3ccc(NC(=O)c4cnc(C)c(-c5ccsc5)c4O)cc3F)c2nc1OC` [Compound 93, N-[4-[(6,7-Dimethoxy-1,5-naphthyridin-4-yl)oxy]-3-fluoro-phenyl]-4-hydroxy-6-methyl-5-(3-thienyl)pyridine-3-carboxamide], the IC50 at Mer and against KDR was at most 0.1 µM throughout.
Regarding `COc1cc2nccc(Oc3ccc(NC(=O)c4c(C)nc(C)c(-c5cc(C(F)(F)F)nn5C)c4O)cc3F)c2nc1OC` [Compound 138], the IC50 on Mer and on KDR was at most 0.1 µM throughout.
Consider `COc1cc2nccc(Oc3ccc(NC(=O)c4c(C)nc(C)c(-c5cccs5)c4O)cc3F)c2nc1OC` [Compound 107], for which the IC50 on Mer and against KDR was at most 0.1 µM in each case.
For the compound `COc1ccc2nccc(Oc3ccc(NC(=O)c4cnc(C)c(-c5ccco5)c4O)cc3F)c2n1` [Compound 118, N-[3-Fluoro-4-[(6-methoxy-1,5-naphthyridin-4-yl)oxy]phenyl]-5-(furan-2-yl)-4-hydroxy-6-methylpyridine-3-carboxamide], the IC50 against Mer and against KDR was at most 0.1 µM in each case.
`COc1cc2nccc(Oc3ccc(NC(=O)c4c(C)nc(C)c(-c5ccc(C6CC6)o5)c4O)cc3F)c2nc1OC` [Compound 155B, 5-(5-Cyclopropylfuran-2-yl)-N-[4-[(6,7-dimethoxy-1,5-naphthyridin-4-yl)oxy]-3-fluorophenyl]-4-hydroxy-2,6-dimethylpyridine-3-carboxamide]: the IC50 on Mer and against KDR was at most 0.1 µM in each case.
Turning to `COc1cc2nccc(Oc3ccc(NC(=O)c4cnc(C)c(-c5cc(C)nn5C)c4O)cc3F)c2nc1OC` [Compound 136, N-[4-[(6,7-Dimethoxy-1,5-naphthyridin-4-yl)oxy]-3-fluorophenyl]-5-(2,5-dimethylpyrazol-3-yl)-4-hydroxy-6-methylpyridine-3-carboxamide], the IC50 on Mer and against KDR was at most 0.1 µM throughout.
Regarding `COc1cc2nccc(Oc3ccc(NC(=O)c4c(C)nc(C)c(-c5ccnn5C)c4O)cc3F)c2nc1OC` [Compound 108, N-[4-[(6,7-Dimethoxy-1,5-naphthyridin-4-yl)oxy]-3-fluoro-phenyl]-4-hydroxy-2,6-dimethyl-5-(2-methylpyrazol-3-yl) pyridine-3-carboxamide], the IC50 on Mer and against KDR was at most 0.1 µM each time.
For the compound `COc1cnc2c(Oc3ccc(NC(=O)c4cn(CCF)c(C)c(-c5cccs5)c4=O)cc3F)ccnc2c1` [Compound 331, 1-(2-Fluoroethyl)-N-[3-fluoro-4-[(7-methoxy-1,5-naphthyridin-4-yl)oxy]phenyl]-6-methyl-4-oxo-5-thiophen-2-ylpyridine-3-carboxamide], the IC50 against Mer is at most 0.1 µM; against KDR, 0.3 to 1 µM.
As to `COc1ccc2nccc(Oc3ccc(NC(=O)c4cnc(C)c(-c5cccs5)c4O)cc3F)c2n1` [Compound 128, N-[3-Fluoro-4-[(6-methoxy-1,5-naphthyridin-4-yl)oxy]phenyl]-4-hydroxy-6-methyl-5-thiophen-2-ylpyridine-3-carboxamide], the IC50 against Mer and against KDR was at most 0.1 µM throughout.
`COc1cnc2c(Oc3ccc(NC(=O)c4c(C)n(C)c(C)c(-c5cccs5)c4=O)cc3F)ccnc2c1` [Compound 166, N-[3-Fluoro-4-[(7-methoxy-1,5-naphthyridin-4-yl)oxy]phenyl]-1,2,6-trimethyl-4-oxo-5-thiophen-2-ylpyridine-3-carboxamide]: the IC50 at Mer is at most 0.1 µM; at KDR it was 0.3 to 1 µM.
